From EP0903346A1, “SYDNONE IMINE DERIVATIVES” (Chugai Seiyaku Kabushiki Kaisha, priority 1995, dated 1997)
pIC50: −log10 of the molar value.

Columns and labels:
[1] = system: platelet rich plasma (PRP); assay: Inhibitory effect on platelet aggregation in rabbit; type: cell-based; settings: Oryctolagus cuniculus, aggregation agent arachidonic acid, pre-incubated for 3 minutes, invention compound n = 1 - 3, aspirin n = 7, read-out: Rabbit antiplatelet aggregation effect IC50
Procedure: Male JW/CSK rabbits weighing 2.6 to 3.1 kg were anesthetized with thiopental (20 mg/kg). Then the blood of each animal was collected from the left carotid artery into a container containing a 3.8% solution of citric acid (9 : 1 v/v). The collected blood was immediately centrifuged at room temperature at 1,300 rpm (230 G) for 10 minutes to give a platelet rich plasma (PRP). Further, a required amount of the blood was centrifuged at 3,000 rpm (1,300 G) for 15 minutes to give a platelet poor plasma (PPP). The PRP to be used in the platelet aggregation test was diluted with PPP to adjust the platelet count to 3 x 10^8. The aggregability was measured by using a platelet aggregation measuring device (TE-500, ERMA) with the use of arachidonic acid ([…]) as an aggregation agent. Each test compound was mixed with PRP and pre-incubated for 3 minutes. Next, the aggregation agent was added thereto and the aggregability was measured for 5 minutes. Thus, the activity of the test compound was evaluated by determining the 50% inhibitory concentration (IC50; µM) thereof to the maximum aggregation induced by the arachidonic acid. As the test compounds, the compounds of the present invention obtained in the above Examples were employed. As a control drug, use was made of aspirin which has been widely known as a platelet aggregation inhinitor. Table E summarizes the results. Table E

[2] = system: isolated rat aorta; assay: Test with the use of isolated rat aorta (relaxation of potassium chloride contraction); settings: read-out: Rat aorta IC50
Procedure: The thoracic aorta was taken out from male Sprague Dawley rats weighing 450 to 600 g and cut into circular samples of 2 mm in width. […] The contraction reactions of the samples were isometrically recorded with FD pick-up. After 1 to 1.5 hours of equilibration, 30 mM potassium chloride was added to contract the tissue. […] As the test compounds, the invention compounds obtained in the above Examples were employed.

[3] = system: anesthetized rat; assay: Blood pressure-lowering effect in anesthetized rat; type: in vivo; settings: duodenal administration
Procedure: Male Sprague Dawley rats weighing 280 to 450 g were anesthetized with sodium pentobarbital (50 mg/kg, i.p.) and fixed in the supine position. A canula was inserted into the trachea of each animal. Then the blood pressure of the animal was measured (AP-621G, Nippon Kohden Corp.) through a polyethylene tube (PE50) inserted into the right femoral artery via a pressure transducer (Life Kit DTS, DX-300, Nippon Kohden Corp.) and the heart rate was determined from the pulse wave (AT-610G, Nippon Kohden Corp.). A canula (PE10) for injecting the maintenance anesthetic drug (sodium pentobarbital 20 mg/kg/h) was inserted into the right femoral vein. The abdominal region was medianly sectioned and a canula (PE50 connected to a injection needle 23G) for duodenal drug administration was inserted thereinto and fixed with Aronalpha for surgical use. After 60-90 minutes of recovery period, the drug was administered into duodenum. After administering the drug, the blood pressure was measured until the average blood pressure returned to the level before the administration.
As the indication of the blood pressure-lowering effect of each drug, the dose causing a decrease in the blood pressure by 30%, based on the level before the administration, was calculated from the dose-response curve and employed as the 30% effective dose (ED30). Moreover, the time required for the recovery to the level corresponding to 50% of the maximum decrease in the blood pressure (half duration) was measured at each dose. Then the half duration at the above-mentioned ED30 was calculated and employed as the indication of the lasting time of the blood pressure-lowering effect (half duration at ED30).
As the test compounds, use was made of the compounds of the present invention obtained in the above Examples. Table C summarizes the results. Table C

[4] = system: rat ischemia-reperfusion model; assay: Myocardial necrosis inhibitory effect in rat ischemia-reperfusion model; type: in vivo; settings: mean ± standard error; for NA/RA: necrosis area/risk area; for CK: serum creatine kinase activity after reflow; for LDH: serum lactate dehydrogenase activity after reflow
Procedure: Male Sprague Dawley rats weighing 270 to 410 g were anesthetized with sodium pentobarbital (50 mg/kg, i.p.) and fixed in the supine position. A canula was inserted into the trachea of each animal. Then the blood pressure of the animal was measured (AP-621G, Nippon Kohden Corp.) through a polyethylene tube (PE50, Becton Dickinson) inserted into the right femoral artery via a pressure transducer (Life Kit DTS, DX-300, Nippon Kohden Corp.) and the heart rate was determined from the pulse wave (AT-610G, Nippon Kohden Corp.). Two canulae (PE10 and PE50, Becton Dickinson) for injecting the maintenance anesthetic drug (sodium pentobarbital 20 mg/kg/h) and a coloring matter respectively were inserted into the right jugular vein. The left jugular vein was exposed for blood collection. The chest was opened by vertically sectioning the chest region from the third to fifth left ribs about 10 mm apart from the median line under artificial respiration with room air (Harvard respirator, model 683, rate : 60 strokes/min. tidal volume : 10 ml/kg body weight). Then the operative field was enlarged with a wound retractor and the heart sac was peeled off to thereby expose the heart. By using a curved round needle with thread for vascular tract (8mm, 6-0 black blaid silk, Matsuda Medical Industry), a thread of 4 to 5 mm in length was put in the left ventricle in the depth of 2 mm for ligating the coronary artery. After the completion of the operation, the animal was allowed to stand as such for 20 minutes or longer. After confirming that the blood pressure and the heart rate had been stabilized, the experiment was initiated.
In this experiment, use was made of eight groups of rats including: 1) a physiological saline (i.e., the solvent for SIN-1) group; 2) an SIN-1 (3 µg/kg/min) group; 3) another SIN-1 (10 µg/kg/min) group; 4) 1% DMSO-containing physiological saline (adjusted to pH 5 with hydrochloric acid, i.e., the solvent for the compounds of Examples 1 and 2) group; 5) a group of the compound of Example 1 (10 µg/kg/min); 6) another group of the compound of Example 1 (30 µg/kg/min); 7) a group of the compound of Example 2 (3 µg/kg/min); and 8) another group of the compound of Example 2 (10 µg/kg/min). Each drug was intravenously administered continuously for 75 minutes (from 15 minutes before the ligation of the coronary artery to the completion of the reflow) at a rate of 0.95 ml/h. Fifteen minutes after the initiation of the drug administration, the coronary artery was ligated and maintained for 30 minutes. The coronary artery was ligated by the snare method with the use of a polyethylene tube (PE160, Becton Dickinson) and a vascular clamp (C-17 grooved, Natsume). After 30-minutes reflow, the risk area (RA) and the necrosis area (NA) were measured.
The risk area and the necrosis area formed by ligating the coronary artery were measured by the double staining method with Evans blue and triphenyltetrazolium chloride (TTC) in the following manner. To clarify the risk area, the coronary artery was ligated again after the completion of the reflow. Subsequently, 1 ml of 5% Evans blue (Sigma) and a 1 M solution of KCl were successively injected into the jugular vein until the heart arrest. Thus, the non-risk area was stained dark blue. After the heart arrest, the heart was quickly taken out and washed with physiological saline. Then the left ventricle was separated and cut into circular slices of 3 mm in width with a trimming blade (Feather). To decide the necrosis area, these slices were incubated in a 0.1 M phosphate buffer (81 mM Na2HPO4: 19 mM NaH2PO4, pH 7.4) containing 1% TTC at 37°C for 5 minutes. Thus, living cells were exclusively stained red with TTC while the necrosis area was not stained. After staining with TTC, each wet slice was weighed, fixed with 20% formalin and then photographed while allowing to stand in physiological saline. […]

[5] = system: rat A-V shunt model; assay: Effect on blood coagulability in rat A-V shunt model; type: in vivo; settings: 10 mg/kg p.o.; from 75 minutes to 2 hours after administration; mean ± S.E. (n = 6)
Procedure: Rat A-V shunts models were prepared by reference to the method of Umezu et al. (Thrombos Haemostas. 1978:39:74 - 83). Male SD rats were anesthetized with sodium pentobarbital (50 mg/kg, i.p.) and fixed in the supine position. A thick polyethylene tube (6 cm; Hibiki No. 7, Kunii Co.) containing a silk suture thread was connected at both ends to another thin polyethylene tube (10 cm, Hibiki No. 4, Kunii Co.) and then inserted into the left common carotid artery and the right internal jugular vein of the rat so as to form an external blood circulation system (A-V Shunt). The blood was circulated within the shunt system for 15 minutes and then the blood coagulates adhering to the silk suture thread in the thick tube was weighed. After repeating this operation thrice, the total weight was determined and the activity of each test compound was evaluated based thereon.
In this experiment, the anti-aggregation effects achieved from 75 minutes to 2 hours after the peroral administration were examined in a vehicle group (0.3% carboxymethyl cellulose, hereinafter referred to simply as CMC; n = 6), a group of the compound of Example 2 (10 mg/kg; n = 6) and a group of FK-409 (10 mg/kg; n = 6) which had been reported as being capable of inhibiting the formation of blood coagulates (European Journal of Pharmacology, 1995:272:39 - 43). Table F summarizes the results. Table F […]

[6] = 10 µg/kg/min intravenously for 75 minutes
[7] = 30 µg/kg/min intravenously for 75 minutes

C[C@H](CSC(=O)c1ccccc1)C(=O)[N-]c1c[n+](N2CCN(C)CC2)no1 [Example 2, N-((S)-3-(Benzoylthio)isobutyryl)-3-(4-methylpiperazin-1-yl)sydnonimine]
pIC50 [1]: 4.80

CCN1CCN([n+]2cc([N-]C(=O)CSC(=O)C3(C)CCc4c(C)c(O)c(C)c(C)c4O3)on2)CC1 (stereo not shown) [Example 192, N-((6-Hydroxy-2,5,7,8-tetramethylchroman-2-carbonylthio)acetyl)-3-(4-ethylpiperazin-1-yl)sydnonimine]
pIC50 [1]: 5.41

CC(=O)SCC(=O)[N-]c1c[n+](N2CCN(C(C)C)CC2)no1 [Example 86, N-(Acetylthioacetyl)-3-(4-isopropylpiperazin-1-yl)sydnonimine]
pIC50 [1]: 5.89

COc1ccc(C(=O)SCCC(=O)[N-]c2c[n+](N3CCN(C)CC3)no2)cc1 [Example 139, N-(3-(4-Methoxybenzoylthio)propionyl)-3-(4-methylpiperazin-1-yl)sydnonimine]
pIC50 [1]: 4.80

CC(=O)Oc1ccccc1C(=O)O [aspirin, reference compound]
pIC50 [1]: 4.56

CN1CCN([n+]2cc([N-]C(=O)CSC(=O)c3ccccc3)on2)CC1 [Example 3, N-((Benzoylthio)acetyl)-3-(4-methylpiperazin-1-yl)sydnonimine]
pIC50 [1]: 5.57

CN1CCN([n+]2cc([N-]C(=O)CSc3cc(C(C)(C)C)c(O)c(C(C)(C)C)c3)on2)CC1 [Example 1, N-((3,5-Di-t-butyl-4-hydroxyphenylthio)acetyl)-3-(4-methylpiperazin-1-yl)sydnonimine]
pIC50 [2]: 6.19
Blood pressure-lowering effect ED30 ([3]; dose causing a decrease in the blood pressure by 30%): 5.5 mg/kg
Blood pressure-lowering effect Half duration ([3]; half duration at ED30 (recovery to 50% of the maximum decrease in blood pressure)): 151 min
NA/RA [4, 6]: 33.4±6.1%
CK [4, 6]: 3237±803
LDH [4, 6]: 1538±254
NA/RA [4, 7]: 22.3±6.1 p<0.01 vs. 4%
CK [4, 7]: 2772±496
LDH [4, 7]: 1339±343

CC(C)N1CCN([n+]2cc([N-]C(=O)CSC(=O)c3ccccc3)on2)CC1 [Example 88, N-(Benzoylthioacetyl)-3-(4-isopropylpiperazin-1-yl)sydnonimine]
pIC50 [1]: 5.96

CCN1CCN([n+]2cc([N-]C(=O)[C@H](C)CSC(=O)c3ccccc3)on2)CC1 [Example 68, N-((S)-3-(Benzoylthio)isobutyryl)-3-(4-ethylpiperazin-1-yl)sydnonimine]
pIC50 [1]: 4.98

CN1CCN([n+]2cc([N-]C(=O)CCSC(=O)c3ccc(F)cc3)on2)CC1 [Example 135, N-(3-(4-Fluorobenzoylthio)propionyl)-3-(4-methylpiperazin-1-yl)sydnonimine]
pIC50 [1]: 4.89

CC/C(=C\C(=N/O)C(N)=O)C(C)[N+](=O)[O-] (stereo not shown) [FK409]
Blood coagulability in rat A-V shunt model p.o. administration; wt. (mg) of coagulates [5]: 89.17 ± 8.43 mg
